Results from US20240124460A1, “METHODS AND COMPOSITIONS FOR TARGETED PROTEIN DEGRADATION” (Ranok Therapeutics (Hangzhou) Co. Ltd., priority 2020, published 2024).
Read-outs that look alike come from different tables or passages of the source.

Legend:
[1] = tested on: MV-4-11 human acute myeloid leukemia; test: MV-4-11 CCK-8 proliferation assay; format: cell-based; details: MV-4-11 cells, 72 hr
How it was run: (§1)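 Lines were maintained according to ATCC guidance. Compounds were then applied as a 3-fold titration from 20 μM to 1.02 nM, and proliferation was measured by CCK-8 absorbance, normalised to DMSO controls minus a no-cell blank.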

[2] = tested on: MDA-MB-468 human breast adenocarcinoma; test: MDA-MB-468 CCK-8 proliferation assay; format: cell-based; details: MDA-MB-468 cells, 72 hr
Procedure: (§2) The following cancer cell lines were employed: A549 human lung carcinoma (ATCC, #CCL-185); BT-474 human breast carcinoma (ATCC, #HTB-20); MDA-MB-231 human breast adenocarcinoma (ATCC, #CRM−HTB-26); MDA-MB-468 human breast adenocarcinoma (ATCC, #HTB-132); MV-4-11 human acute myeloid leukemia (ATCC, #CRL-9591); and U-87 MG human glioblastoma (ATCC, #HTB-14). Cell lines were cultured essentially according to ATCC recommendations.
(§3) 3-fold serial dilutions of each test compound were prepared ranging from 20 μM to 1.02 nM.
(§4) % Inhibition=100−(D−B)/(S−B)*100%. • S: Absorbance of cells treated with DMSO • D: Absorbance of compound-treated cells • B: Absorbance of medium with DMSO without cells

[3] = tested on: U-87 MG human glioblastoma; test: U87 MG CCK-8 proliferation assay; format: cell-based; details: U-87 MG cells, read-out: U87MG CCK-8
How it was run: as §1

HSP90α protein [4] = target: T1, HSP90α protein (Homo sapiens, UniProt P07900); test: HSP90α-binding FP (BODIPY) assay; details: FP competition with BODIPY-labeled RNK04010
T1 construct: purchased BPS Bioscience #50298
How it was run: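 Fluorescence polarization measured competition with N-terminal human HSP90α, using either FITC-geldanamycin or BODIPY-labelled triazolone RNK04010 as tracer (5 nM final each). Compounds were tested in 2.5-fold dilutions from 20 μM to 5.2 nM, with incubation at 25 °C for 120 min (FITC) or 300 min (BODIPY).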

[5] = tested on: MDA-MB-231 human breast adenocarcinoma; test: MDA-MB-231 CCK-8 proliferation assay; format: cell-based; details: MDA-MB-231 cells, 72 hr
Procedure: as §2, §3, §4

ERBB2 = ERBB2 (HER2) flow cytometry protein degradation assay in BT-474 cells; format: cell-based, human; details: DC50, BT-474 cells, 24 hr
How it was run: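 BT-474 cells trypsinised after compound treatment and stained with PE-conjugated anti-ERBB2 antibody, 30 min at 25° C in the dark, then fixed in 1% paraformaldehyde for flow cytometry. % inhibition = 100−(D−B)/(S−B)*100, using treated, untreated-stained and unstained cell fluorescence.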

MAPK7 [6] = target: T2, MAPK7 (Homo sapiens, UniProt Q13164); test: MAPK7 Western blot protein degradation assay in U-87 MG cells; format: cell-based; set-up: U-87 MG human glioblastoma cells, which express MAPK7; endogenous in cells; host or cells: U-87 MG; details: 48 hr
Procedure: U-87 MG human glioblastoma cells were seeded in 6- or 12-well tissue culture plates, and after 1 hr, test compounds were added at various concentrations and incubated at 37° C./5% CO2 for 48 hr. Cells were then washed with cold PBS, aspirated and cold RIPA buffer containing a protease/phosphatase inhibitor cocktail was added to lyse cells. After centrifugation, the total protein concentrations of cell lysates were determined using the BCA protein assay. Samples were normalized for equivalent protein concentrations, 5×SDS-PAGE loading buffer added and denatured at 100° C. for 10 min. 20 μl of each sample/well was loaded on a SDS-PAGE gel and electrophoresed for 20 min at 80 V, then 120 V for 1.5 hr. Gels were then electroblotted to nitrocellulose membranes using a wet-transfer method at 250 mA for 2.5 hr. Membranes were incubated with blocking buffer for 1 hr and washed 3 times with TBST for 5 min. Membranes were then incubated with anti-MAPK7 (anti-ERK5; Cell Signaling Technology, #12950) and anti-3-Actin (Cell Signaling Technology, #3700) monoclonal antibodies diluted in blocking buffer at 4° C. overnight per the manufacturer's recommendations. After washing 3 times, blots were incubated with appropriately labeled secondary antibodies for 1 hr at room temperature and washed again. Fluorescence imaging and quantitation was performed using a LI-COR Odyssey. Results was analyzed using GraphPad Prism 7 software.

MAPK7 [7] = target: T2, MAPK7; test: MAPK7 kinase assay (ADP-Glo); format: biochemical; set-up: purchased Carna Biosciences #04-146; details: ATP 340 μM
Procedure: The inhibition of MAPK7 kinase activity by test compounds was measured by the ADP-Glo Kinase Assay (Promega, #V6930), following the manufacturer's instructions, except as noted. 3-fold serial dilutions of each test compound were prepared ranging from 50 μM to 2.54 nM. Also, as a positive control, a 4-fold serial dilution of the MAPK7 inhibitor, XMD17-109 (MedChemExpress, #HY-15665) was prepared ranging from 10 μM to 0.04 nM. In brief, in 384-well plates, test compounds were added to the kinase reaction mix containing recombinant MAPK7 protein (Carna Biosciences, #04-146; 20 nM final concentration), myelin basic protein (SignalChem Biotech, #M42-54G; 0.1 mg/ml final concentration) and ATP (340 μM final concentration), then mixed by shaking and incubated with ADP-Glo Reagent and Kinase Detection Reagent. Luminescence was measured on a BioTek plate reader.
Lumpositive: The average ratio for 10 wells of positive controls (10 μM XMD17-109) across the plate.
Lumvehicle: The average ratio for 10 wells of negative controls (0.5% DMSO) across the plate.

HSP90α protein [8] = target: T1, HSP90α protein; test: HSP90α-binding FP (FITC) assay; details: FP competition with FITC-geldanamycin
Procedure: Binding of test compounds to HSP90α protein was measured by fluorescent polarization (FP) using the HSP90α (N-terminal) Assay Kit (BPS Bioscience, #50298), following the manufacturer's instructions, except as noted. Fluorescently labeled HSP90-binding compounds, either the provided FITC-geldanamycin (5 nM final concentration) or RNK04010, a triazolone-based HSP90 binding small molecule labeled with BODIPY through a piperazine-phenyl linker (5 nM final concentration) were employed. A 2.5-fold serial dilution of each test compound ranging from 20 μM to 5.2 nM was assayed for binding to HSP90α. After the final step of adding HSP90α protein to each assay well, plates were mixed by brief shaking, incubated at 25° C. for 120 min for FITC-geldanamycin or 300 min for RNK04010, and fluorescence was measured using a PerkinElmer EnVision Plate Reader.

T2 sequence (Q13164 whole entry): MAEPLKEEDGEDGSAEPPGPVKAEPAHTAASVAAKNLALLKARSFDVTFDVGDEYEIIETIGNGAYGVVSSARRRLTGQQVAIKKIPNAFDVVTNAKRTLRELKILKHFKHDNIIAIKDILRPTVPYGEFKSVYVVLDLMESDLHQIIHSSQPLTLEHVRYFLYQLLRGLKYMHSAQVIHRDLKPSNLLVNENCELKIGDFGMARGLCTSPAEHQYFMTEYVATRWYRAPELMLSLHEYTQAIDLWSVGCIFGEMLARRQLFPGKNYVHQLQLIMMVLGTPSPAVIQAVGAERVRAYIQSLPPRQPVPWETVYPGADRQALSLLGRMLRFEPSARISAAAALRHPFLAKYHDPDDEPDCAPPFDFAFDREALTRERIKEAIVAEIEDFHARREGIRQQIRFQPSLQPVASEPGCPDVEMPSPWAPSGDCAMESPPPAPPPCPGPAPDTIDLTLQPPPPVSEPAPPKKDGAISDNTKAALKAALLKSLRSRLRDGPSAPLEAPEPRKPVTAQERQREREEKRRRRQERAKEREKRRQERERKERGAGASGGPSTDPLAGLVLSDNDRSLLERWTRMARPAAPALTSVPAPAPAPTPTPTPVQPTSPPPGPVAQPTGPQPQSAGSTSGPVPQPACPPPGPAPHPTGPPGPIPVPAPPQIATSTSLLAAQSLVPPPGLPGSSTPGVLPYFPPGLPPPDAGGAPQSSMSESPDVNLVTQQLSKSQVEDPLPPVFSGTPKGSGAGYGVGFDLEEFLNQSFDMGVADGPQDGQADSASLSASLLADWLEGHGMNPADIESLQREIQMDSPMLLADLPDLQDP

## CCOc1cc(N2CCC(C(=O)NCCOCc3ccc(-n4c(O)nnc4-c4cc(C(C)C)c(O)cc4O)cc3)CC2)ccc1Nc1ncc2c(n1)N(C)c1ccccc1C(=O)N2C [Compound 053, N-(2-((4-(3-(2,4-dihydroxy-5-isopropylphenyl)-5-hydroxy-4H-1,2,4-triazol-4-yl)benzyl)oxy)ethyl)-1-(4-((5,11-dimethyl-6-oxo-6,11-dihydro-5H-benzo[e]pyrimido[5,4-b][1,4]diazepin-2-yl)amino)-3-ethoxyphenyl)piperidine-4-carboxamide]
[1]
  EC50: < 100 nM
[2]
  EC50: < 100 nM
[3]; 72 hr
  EC50: 100 to 1000 nM
HSP90α protein [4]
  IC50: 100 to 1000 nM
[5]
  EC50: 100 to 1000 nM

## CCOc1cc(N2CCC(C(=O)N3CCC(CN4CCN(Cc5ccc(-n6c(O)nnc6-c6cc(C(C)C)c(O)cc6O)cc5)CC4)CC3)CC2)ccc1Nc1ncc2c(n1)N(C)c1ccccc1C(=O)N2C.Cl [Compound 032, 2-((4-(4-(4-((4-(4-(3-(2,4-dihydroxy-5-isopropylphenyl)-5-hydroxy-4H-1,2,4-triazol-4-yl)benzyl)piperazin-1-yl)methyl)piperidine-1-carbonyl)piperidin-1-yl)-2-ethoxyphenyl)amino)-5,11-dimethyl-5,11-dihydro-6H-benzo[e]pyrimido[5,4-b][1,4]diazepin-6-one]
[1]; Homo sapiens, MV4-11
  EC50: < 100 nM
[3]; Homo sapiens, U-87 MG, 72 h
  EC50: 100 to 1000 nM
ERBB2
  ERBB2 degradation: B (DC50 = 100-1000 nM)
HSP90α protein [4]
  IC50: < 100 nM
MAPK7 [6]
  MAPK7 degradation (30 nM): C (< 33% degradation)
  MAPK7 degradation (100 nM): B (33-66% degradation)
  MAPK7 degradation (1000 nM): A (>66% degradation)
MAPK7 [6]; 300 nM
  MAPK7 degradation (300 nM): A (>66% degradation)
MAPK7 [7]
  IC50: > 1000 nM

## CCOc1cc(N2CCC(C(=O)N3CCN(Cc4ccc(-n5c(O)nnc5-c5cc(CC)c(O)cc5O)cc4)CC3)CC2)ccc1Nc1ncc2c(n1)N(C)c1ccccc1C(=O)N2C [Compound 049, 2-((2-ethoxy-4-(4-(4-(4-(3-(5-ethyl-2,4-dihydroxyphenyl)-5-hydroxy-4H-1,2,4-triazol-4-yl)benzyl)piperazine-1-carbonyl)piperidin-1-yl)phenyl)amino)-5,11-dimethyl-5,11-dihydro-6H-benzo[e]pyrimido[5,4-b][1,4]diazepin-6-one]
[1]; Homo sapiens, MV4-11
  EC50: < 100 nM
[2]
  EC50: < 100 nM
[3]; Homo sapiens, U-87 MG, 72 h
  EC50: 100 to 1000 nM
HSP90α protein [4]
  IC50: 100 to 1000 nM
[5]
  EC50: < 100 nM

## CCOc1cc(N2CCC(C(=O)N3CCC(CN4CCN(Cc5ccc(-n6c(O)nnc6-c6cc(C(C)C)c(O)cc6OC)cc5)CC4)CC3)CC2)ccc1Nc1ncc2c(n1)N(S(C)(=O)=O)c1ccccc1C(=O)N2C [Compound 128, 2-((2-ethoxy-4-(4-(4-((4-(4-(3-hydroxy-5-(4-hydroxy-5-isopropyl-2-methoxyphenyl)-4H-1,2,4-triazol-4-yl)benzyl)piperazin-1-yl)methyl)piperidine-1-carbonyl)piperidin-1-yl)phenyl)amino)-5-methyl-11-(methylsulfonyl)-5,11-dihydro-6H-benzo[e]pyrimido[5,4-b][1,4]diazepin-6-one]
[1]; Homo sapiens, MV4-11
  EC50: > 1000 nM
[3]; Homo sapiens, U-87 MG, 72 h
  EC50: > 1000 nM
HSP90α protein [8]
  IC50: > 1000 nM
MAPK7 [7]
  IC50: < 100 nM

## CCOc1cc(N2CCC(C(=O)N3CCN(Cc4ccc(-n5c(O)nnc5-c5cc(C(C)C)c(O)cc5O)cc4)CC3)CC2)ccc1Nc1ncc2c(n1)N(C)c1ccccc1C(=O)N2C [Compound 024, 2-((4-(4-(4-(4-(3-(2,4-dihydroxy-5-isopropylphenyl)-5-hydroxy-4H-1,2,4-triazol-4-yl)benzyl)piperazine-1-carbonyl)piperidin-1-yl)-2-ethoxyphenyl)amino)-5,11-dimethyl-5,11-dihydro-6H-benzo[e]pyrimido[5,4-b][1,4]diazepin-6-one]
[1]; Homo sapiens, MV4-11
  EC50: < 100 nM
[3]; Homo sapiens, U-87 MG, 72 h
  EC50: < 100 nM
ERBB2
  ERBB2 degradation: B (DC50 = 100-1000 nM)
HSP90α protein [4]
  IC50: 100 to 1000 nM
MAPK7 [6]
  MAPK7 degradation (30 nM): C (< 33% degradation)
  MAPK7 degradation (100 nM): B (33-66% degradation)
  MAPK7 degradation (1000 nM): A (>66% degradation)
MAPK7 [7]
  IC50: > 1000 nM
